Source: patent US5137897A, “2-substituted 4-(3-alkyl-5-tert.-butyl-4-hydroxyphenyl) thiazoles, processes for their preparation, pharmaceuticals containing them and their use” (Hoechst Aktiengesllschaft, priority 1989, dated 1992)
Where two headings read alike, the source gives them in different places.

Experiments:
[1] = tested on: Adjuvant arthritis (paw volume increase) in rats; experiment: Adjuvant arthritis (method of Pearson), antiinflammatory action on the 5th day; format: in vivo, rat (male, Wistar-Lewis strain); details: Rattus norvegicus, 120 h; for ED50: adjuvant arthritis, oral, determined graphically from dose-response curve; for inhibition in vivo at 50 mg/kg: po, 50 mg/kg p.o. once daily, 1st to 5th day, vs untreated control, read-out: Adjuvant arthritis (% inhibition at 50 mg/kg orally)
Protocol: The testing of the compounds of the formula I according to the invention for antiinflammatory action, influence on immunopathological processes, oxygen free radicaldeactivating properties and influence on arachidonic acid metabolism was carried out in the animal models and bioassays described in the following.
1. Adjuvant arthritis for influencing the antiinflammatory action (Table 2)
(§1) The investigations were carried out by the method of Pearson (Arthrit. Rheum. 1959, 2, 44). Male rats of a Wistar-Lewis strain having a body weight between 130 and 200 g were used as experimental animals. The compounds to be tested were administered orally (p. o.) once daily from the 1st to the 5th experimental day in doses of 50 mg per kg of body weight. The animals of one control group received only the vehicle. Each preparation group and the control group comprised 8 animals. The percentage reduction of the paw volume increase compared to that of the untreated control group was used as the criterion of action. The ED50 values were determined graphically from the dose-response curve.
(§2) 4-(3,5-Di-tert.-butyl-4-hydroxyphenyl)-2-methylthiazole i.e. the compound of the formula [drawing 26] according to US-A-4,535,165 mentioned at the beginning, was additionally included in this and the investigation below as a comparison preparation.

[2] = tested on: Adjuvant arthritis (Perper modification; paw volume) in rats; experiment: Adjuvant arthritis (Perper modification), paw volume on the 21st day; format: in vivo, rat (male, Wistar-Lewis strain); details: for inhibition in vivo at 50 mg/kg: Rattus norvegicus, po, 504 h, 50 mg/kg/day, 1st to 12th day
Protocol: as §1, §2
a) Adjuvant arthritis (Perper modification)
The animals were only treated from the 1st to the 12th experimental day in the experimental arrangement described in item 1. After a treatment-free interval of 9 days, determination of the paw volume of the left and right hind paw was carried out on the 21st day (compare Table 3).

[3] = Free radical scavenger properties (reaction with DPPH); details: reaction with DPPH at 20° C.; determined graphically
Protocol: a) Free radical scavenger properties The testing in this test, which allows conclusions on the antioxidative potential of a substance, was carried out according to Smith et al., Biochem, Pharmacol. 1987. 36, 1456. In this test, the reaction of the compounds according to the invention with the stable free radical 1,1-diphenyl-2-picrylhydrazyl (DPPH) is monitored optically at 20° C. The rate constant K and reaction orders n in Table 5 were determined graphically in the customary manner.

[4] = tested on: Arthus reaction (paw volume increase) in rats; experiment: Reverse passive Arthus reaction; format: in vivo, rat (male Sprague-Dawley)
Protocol: b) Reverse passive Arthus reaction
Male Sprague-Dawley rats having a body weight between 100 and 120 g. which had been divided into groups of 8 animals in each case, were used as experimental animals. The animals received a subplantar injection in the left hind paw of 0.5 mg of immunoglobulin in 0.1 ml of a sodium chloride solution 1 hour after oral administration of the test substance. After 4 hours, the Arthus reaction was measured, the percentage change in the paw volume increase compared to that of the control group treated only with vehicle being used as a measuring parameter for the action.

[5] = tested on: LTB4 formation in human neutrophils; experiment: Influence on LTB4 formation in human neutrophils; format: cell-based; details: Neutrophil
Protocol: (§3) Moreover, the substances according to the invention were also characterized in cellular leukocyte systems in vitro as inhibitors of arachidonic acid metabolites. To detect the lipoxygenase metabolites, human neutrophils stimlated by calcium ionophore A 23 187 (70 mcmol/1) were incubated with ^14 C-arachidonic acid (81 mcmol/1) and the principal metabolites formed after 15 minutes at 37° C., such as 5-hydroxyeicosatetraenoic acid (5-HETE) and the more strongly proinflammatory leukotriene B4 (LTB4) were determined quantitatively (Tab. 6) with the aid of a radio monitor after separation by HPLC. The influence on the proinflammatory arachiconic acid metabolites thromboxane and LTB4 in cultures prepared from rat mast cells was determined in a corresponding manner (Tab. 7).

[6] = tested on: 5-HETE formation in human neutrophils; experiment: Influence on 5-HETE formation in human neutrophils; format: cell-based; details: Neutrophil
Protocol: as §3

[7] = read-out: % inhibition on the 21st day, Left paw
[8] = read-out: % inhibition on the 21st day, Right paw

Row | Compound | inhibition in vivo at 50 mg/kg [1] | inhibition in vivo at 50 mg/kg [2, 7] | inhibition in vivo at 50 mg/kg [2, 8] | reaction order n [3] | other results
1 | Cc1cc(-c2csc(CCC(=O)O)n2)cc(C(C)(C)C)c1O [Example 17] | 67% | 60% | 38% | – | ED50 [1]: 7.5 mg/kg
2 | CC(C)(C)c1cc(-c2csc(CCC(=O)Nc3nn[nH]n3)n2)cc(C(C)(C)C)c1O [Example 21] | 65% | 42% | 54% | 1 | % inhibition (Arthus reaction) ([4]; 50 mg/kg orally): 48%
3 | CCOC(=O)CCc1nc(-c2cc(C(C)(C)C)c(O)c(C(C)(C)C)c2)cs1 [Example 1, Ethyl 3-[4-(3,5-di-tert.-butyl-4-hydroxyphenyl)thiazol-2-yl]propionate] | 73% | 45% | 49% | < 1 | ED50 [1]: 5.7 mg/kg
4 | CONC(=O)CCc1nc(-c2cc(C(C)(C)C)c(O)c(C(C)(C)C)c2)cs1 [Example 20] | 66% | 50% | 35% | – | –
5 | CC(C)(C)c1cc(-c2csc(CSCC(=O)O)n2)cc(C(C)(C)C)c1O [Example 18] | – | – | – | 1 | % inhibition (Arthus reaction) ([4]; 100 mg/kg orally): 50%
6 | CC(C)(C)c1cc(-c2csc(C=C3CCNC3=O)n2)cc(C(C)(C)C)c1O [Example 4, 3-[4-(3,5-Di-tert.-butyl-4-hydroxyphenyl)thiazol-2-ylmethylidene]pyrrolidin-2-one] | 54% | – | – | – | –
7 | CC(C)(C)c1cc(-c2csc(C=CC(=O)O)n2)cc(C(C)(C)C)c1O [Example 11] | 63% | 44% | 51% | 1 | ED50 [1]: 12.6 mg/kg
8 | CC(C)(OCc1nc(-c2cc(C(C)(C)C)c(O)c(C(C)(C)C)c2)cs1)C(=O)O [Example 6] | 70% | – | – | – | –
9 | CC(C)(C)c1cc(-c2csc(C=NOCC(=O)O)n2)cc(C(C)(C)C)c1O [Example 5] | 51% | 20% | 42% | – | % inhibition (Arthus reaction) ([4]; 60 mg/kg orally): 38%
10 | CC(C)(C)c1cc(-c2csc(CC(=O)O)n2)cc(C(C)(C)C)c1O [Example 9] | – | – | – | < 1 | activity at 0.1 µM ([5]; 0.1 μM, n = 6, read-out: LTB4 formation, Residual activity (%)): 70 ± 12%; activity at 1 µM ([5]; 1 μM, n = 6, read-out: LTB4 formation, Residual activity (%)): 79 ± 11%; activity at 10 µM ([5]; 10 μM, n = 6, read-out: LTB4 formation, Residual activity (%)): 73 ± 12%; activity at 100 µM ([5]; 100 μM, n = 9, read-out: LTB4 formation, Residual activity (%)): 20.5 ± 11%; activity at 0.1 µM ([6]; 0.1 μM, n = 6, read-out: 5-HETE formation, Residual activity (%)): 91.5 ± 10%; activity at 1 µM ([6]; 1 μM, n = 6, read-out: 5-HETE formation, Residual activity (%)): 80 ± 8%; activity at 10 µM ([6]; 10 μM, n = 6, read-out: 5-HETE formation, Residual activity (%)): 75 ± 13%; activity at 100 µM ([6]; 100 μM, n = 9, read-out: 5-HETE formation, Residual activity (%)): 21 ± 8%
11 | CCOC(=O)C=Cc1nc(-c2cc(C(C)(C)C)c(O)c(C(C)(C)C)c2)cs1 [Example 2, Ethyl 3-[4-(3,5-di-tert.-butyl-4-hydroxyphenyl)thiazol-2-yl]acrylate] | – | – | – | 1 | –
12 | CC(C)(C)c1cc(-c2csc(CCCC(=O)O)n2)cc(C(C)(C)C)c1O [Example 10] | 71% | – | – | – | –
13 | Cc1nc(-c2cc(C(C)(C)C)c(O)c(C(C)(C)C)c2)cs1 [Comparison preparation, 4-(3,5-Di-tert.-butyl-4-hydroxyphenyl)-2-methylthiazole, reference compound] | 67% | 12% | 21% | – | action in the Perper modification of adjuvant arthritis (in words) ([2]; comparison with preparation from US-A-4,535,165): only a suggested action
14 | CCOC(=O)CCc1nc(-c2cc(C(C)(C)C)c(O)c(C(C)(C)C)c2)c(C)s1 [Example 14] | 61% | 22% | 49% | – | –
15 | COC(=O)CCc1nc(-c2cc(C(C)(C)C)c(O)c(C(C)(C)C)c2)cs1 [Example 13] | 74% | 44% | 31% | 1 | –
